# Laboratory results taken from ChEMBL document CHEMBL3792383, “C-cinnamoyl glycosides as a new class of anti-filarial agents” (Eur J Med Chem, 2016).
# Active and inactive are the calls of the source. No cut-off for these calls is given here.
# Tests used:
# Setaria cervi [1] = assay: Antifilarial activity against microfilaria of Setaria cervi assessed as inhibition of worm viability after 24 hrs by MTT assay; assay type: functional
# Setaria cervi [2] = assay: Antifilarial activity against microfilaria of Setaria cervi assessed as inhibition of relative movability after 24 hrs by microscopy; assay type: functional, organism-based
# [3] = Cytotoxicity against human normal kidney epithelial cells after 24 hrs by MTT assay; assay type: cell-based, Epithelial cell
# [4] = Selectivity index, ratio of CC50 for human normal kidney epithelial cells to IC50 for microfilaria of Setaria cervi; assay type: functional, Epithelial cell
# [5] = Antifilarial activity against microfilaria of Wuchereria bancrofti assessed as inhibition of relative movability after 24 hrs by microscopy; assay type: functional
# Setaria cervi [6] = assay: Induction of apoptosis in microfilaria of Setaria cervi assessed as chromatin condensation after 24 hrs by propidium iodide staining-based inverted fluorescence microscopy; assay type: functional, organism-based
# Setaria cervi [7] = assay: Induction of apoptosis in microfilaria of Setaria cervi assessed as DNA fragmentation after 24 hrs by Hoechst 33342 staining-based fluorescence microscopy; assay type: functional, organism-based
# Setaria cervi [8] = assay: Induction of apoptosis in microfilaria of Setaria cervi assessed as DNA fragmentation after 24 hrs by propidium iodide staining-based inverted fluorescence microscopy; assay type: functional, organism-based
# Setaria cervi [9] = assay: Induction of cuticular sheath damage in microfilaria of Setaria cervi after 24 hrs by scanning electron microscopy; assay type: functional, organism-based
# Wuchereria bancrofti = assay: Antifilarial activity against microfilaria of Wuchereria bancrofti assessed as reduction in worm viability at 18 nM after 24 hrs by MTT assay; assay type: functional
# Setaria cervi [10] = assay: Induction of apoptosis in microfilaria of Setaria cervi assessed as chromatin condensation after 24 hrs by Hoechst 33342 staining-based fluorescence microscopy; assay type: functional, organism-based
# Setaria cervi [11] = assay: Potency index, ratio of ivermectin LC50 to compound LC50 for microfilaria of Setaria cervi by MTT assay; assay type: functional
Compound,LC50 (Setaria cervi [1]) [nM],"IC50 (Setaria cervi [2]; Setaria cervi, 24 h) [nM]","MIC (Setaria cervi [2]; Setaria cervi, 24 h) [µM]",further results
COc1cc(/C=C/C(=O)C[C@@H]2O[C@H](COC(C)=O)[C@@H](OC(C)=O)[C@H](OC(C)=O)[C@H]2OC(C)=O)ccc1O,500,185,0.0722,
CC(=O)OC[C@H]1O[C@@H](CC(=O)/C=C/c2ccc(OC(C)=O)cc2)[C@H](OC(C)=O)[C@@H](OC(C)=O)[C@@H]1OC(C)=O,336,119,0.0342,
CC(=O)OC[C@H]1O[C@@H](CC(=O)/C=C/c2cccnc2)[C@H](OC(C)=O)[C@@H](OC(C)=O)[C@@H]1OC(C)=O,26.7,7.64,0.00377,CC50 at 24 h [3]: 4.17 nM; Ratio CC50/IC50 [4]: 0.56
COc1ccc(/C=C/C(=O)C[C@@H]2O[C@H](COC(C)=O)[C@@H](OC(C)=O)[C@H](OC(C)=O)[C@H]2OC(C)=O)cc1OC,274,81.4,0.0629,
CC(=O)OC[C@H]1O[C@@H](CC(=O)/C=C/c2ccc(N(C)C)cc2)[C@H](OC(C)=O)[C@@H](OC(C)=O)[C@@H]1OC(C)=O,886,226,0.113,
CC(=O)OC[C@H]1O[C@@H](CC(=O)/C=C/c2ccc(Cl)c(Cl)c2)[C@H](OC(C)=O)[C@@H](OC(C)=O)[C@@H]1OC(C)=O,13.2,6.97,0.00458,IC50 [5]: 6.77 nM; MIC [5]: 0.00458 µM; inhibition [5]: Dose-dependent effect; CC50 at 24 h [3]: 25.8 nM; Activity (Setaria cervi [6]): Active; Activity (Setaria cervi [7]): Active; Activity (Setaria cervi [8]): Active; Activity (Setaria cervi [9]): Active; Activity (Wuchereria bancrofti): 81.09%; Activity (Setaria cervi [10]): Active; Ratio CC50/IC50 [4]: 3.97; RatioLC50 (Setaria cervi [11]): 6.5
COc1cccc(/C=C/C(=O)C[C@@H]2O[C@H](COC(C)=O)[C@@H](OC(C)=O)[C@H](OC(C)=O)[C@H]2OC(C)=O)c1,> 900,> 900,> 0.9,
CC(=O)OC[C@H]1O[C@@H](CC(=O)/C=C/c2ccc(C)cc2)[C@H](OC(C)=O)[C@@H](OC(C)=O)[C@@H]1OC(C)=O,42.2,13.6,0.00581,CC50 at 24 h [3]: 3.18 nM; Ratio CC50/IC50 [4]: 0.24
CC(=O)OC[C@H]1O[C@@H](CC(=O)/C=C/c2cccs2)[C@H](OC(C)=O)[C@@H](OC(C)=O)[C@@H]1OC(C)=O,257,46.9,0.0245,
CCOc1ccc(/C=C/C(=O)C[C@@H]2O[C@H](COC(C)=O)[C@@H](OC(C)=O)[C@H](OC(C)=O)[C@H]2OC(C)=O)cc1,76.8,51.4,0.0279,
CC(=O)OC[C@H]1O[C@@H](CC(=O)/C=C/c2cccc([N+](=O)[O-])c2)[C@H](OC(C)=O)[C@@H](OC(C)=O)[C@@H]1OC(C)=O,29,11.3,0.00594,CC50 at 24 h [3]: 15.4 nM; Ratio CC50/IC50 [4]: 1.44
CC(=O)OC[C@H]1O[C@@H](CC(=O)/C=C/c2ccc(OCc3ccccc3)cc2)[C@H](OC(C)=O)[C@@H](OC(C)=O)[C@@H]1OC(C)=O,> 900,348,0.263,
IVERMECTIN [listing 1 of 2 here],53.6,,,Activity (Wuchereria bancrofti): 17.6%; MIC (Setaria cervi [2]): 0.00743 µM
CC(=O)OC[C@H]1O[C@@H](CC(=O)/C=C/c2ccc([N+](=O)[O-])s2)[C@H](OC(C)=O)[C@@H](OC(C)=O)[C@@H]1OC(C)=O,47.5,21.3,0.0106,
IVERMECTIN [listing 2 of 2 here],,,,IC50 (Setaria cervi [2]): 19.5 nM
COc1ccc(/C=C/C(=O)C[C@@H]2O[C@H](COC(C)=O)[C@@H](OC(C)=O)[C@H](OC(C)=O)[C@H]2OC(C)=O)cc1OCc1ccccc1,> 900,250,0.123,
CC(=O)OC[C@H]1O[C@@H](CC(=O)/C=C/c2ccco2)[C@H](OC(C)=O)[C@@H](OC(C)=O)[C@@H]1OC(C)=O,163,46.6,0.0153,
CC(=O)OC[C@H]1O[C@@H](CC(=O)/C=C/c2ccc(Cl)cc2)[C@H](OC(C)=O)[C@@H](OC(C)=O)[C@@H]1OC(C)=O,51.9,26.6,0.0167,
CC(=O)OC[C@H]1O[C@@H](CC(=O)/C=C/c2cc(Cl)cc(Cl)c2O)[C@H](OC(C)=O)[C@@H](OC(C)=O)[C@@H]1OC(C)=O,44.4,17.7,0.00919,
CC(=O)OC[C@H]1O[C@@H](CC(=O)/C=C/c2ccc(C(F)(F)F)cc2)[C@H](OC(C)=O)[C@@H](OC(C)=O)[C@@H]1OC(C)=O,24.6,6.89,0.0034,IC50 [5]: 8.96 nM; MIC [5]: 0.0044 µM; inhibition [5]: Dose-dependent effect; CC50 at 24 h [3]: 102 nM; Activity (Setaria cervi [6]): Active; Activity (Setaria cervi [7]): Active; Activity (Setaria cervi [8]): Active; Activity (Setaria cervi [9]): Active; Activity (Wuchereria bancrofti): 40.6%; Activity (Setaria cervi [10]): Active; Ratio CC50/IC50 [4]: 14.87; RatioLC50 (Setaria cervi [11]): 3.5
CC(=O)OC[C@H]1O[C@@H](CC(=O)/C=C/c2cccc3ccccc23)[C@H](OC(C)=O)[C@@H](OC(C)=O)[C@@H]1OC(C)=O,19.4,13.5,0.0117,
COc1ccc(/C=C/C(=O)C[C@@H]2O[C@H](COC(C)=O)[C@@H](OC(C)=O)[C@H](OC(C)=O)[C@H]2OC(C)=O)cc1,142,41.6,0.0207,
CC(=O)OC[C@H]1O[C@@H](CC(=O)/C=C/c2cc(Cl)cc(Cl)c2)[C@H](OC(C)=O)[C@@H](OC(C)=O)[C@@H]1OC(C)=O,15.8,7.52,0.00532,IC50 [5]: 9.33 nM; MIC [5]: 0.00476 µM; inhibition [5]: Dose-dependent effect; CC50 at 24 h [3]: 32.9 nM; Activity (Setaria cervi [6]): Active; Activity (Setaria cervi [7]): Active; Activity (Setaria cervi [8]): Active; Activity (Setaria cervi [9]): inactive; Activity (Wuchereria bancrofti): 73.1%; Activity (Setaria cervi [10]): Active; Ratio CC50/IC50 [4]: 4.94; RatioLC50 (Setaria cervi [11]): 5.4
CC(=O)OC[C@H]1O[C@@H](CC(=O)/C=C/c2ccc(O)cc2)[C@H](OC(C)=O)[C@@H](OC(C)=O)[C@@H]1OC(C)=O,> 900,> 900,> 0.9,
CC(=O)OC[C@H]1O[C@@H](CC(=O)/C=C/c2ccccc2)[C@H](OC(C)=O)[C@@H](OC(C)=O)[C@@H]1OC(C)=O,108,38.8,0.0206,
COc1cc(/C=C/C(=O)C[C@@H]2O[C@H](COC(C)=O)[C@@H](OC(C)=O)[C@H](OC(C)=O)[C@H]2OC(C)=O)cc(OC)c1OC,140,76.4,0.0602,
COc1ccccc1/C=C/C(=O)C[C@@H]1O[C@H](COC(C)=O)[C@@H](OC(C)=O)[C@H](OC(C)=O)[C@H]1OC(C)=O,256,68.9,0.0351,
CC(=O)OC[C@H]1O[C@@H](CC(=O)/C=C/c2ccc([N+](=O)[O-])cc2)[C@H](OC(C)=O)[C@@H](OC(C)=O)[C@@H]1OC(C)=O,71.2,23.9,0.0111,
CC(=O)OC[C@H]1O[C@@H](CC(=O)/C=C/c2ccc3ccccc3c2)[C@H](OC(C)=O)[C@@H](OC(C)=O)[C@@H]1OC(C)=O,> 900,> 900,> 0.9,
